Results published in ChEMBL document CHEMBL6153025, “Multidrug-resistant bacteria quorum-sensing inhibitors: A particular focus on Pseudomonasaeruginosa” (Eur J Med Chem, 2025).
pIC50: −log10 of the molar value. Values belong to the compound of their own block, whether it stands above or below them.

What was measured:
[1] = test system: Pseudomonas aeruginosa; assay: Antibiofilm activity against Pseudomonas aeruginosa PAO1 assessed as inhibition of biofilm formation at 32 ug/ml incubated for 8 hrs by crystal violet staining based assay relative to control; format: functional; parameters: scale not given: the % may be the effect or the level left; details: dose 32 µg/ml
[2] = test system: Pseudomonas aeruginosa; assay: Anti-virulence effect in Pseudomonas aeruginosa PAO1 assessed as inhibition of rhamnolipid production at 10 uM relative to control; format: functional; parameters: scale not given: the % may be the effect or the level left
[3] = test system: Pseudomonas aeruginosa; assay: Anti-virulence activity against Pseudomonas aeruginosa PAO1-L assessed as reduction in pyocyanin production at 10 uM incubated for 24 hrs by absorbance based analysis relative to control; format: functional; parameters: scale not given: the % may be the effect or the level left
[4] = target: T1, Transcriptional activator protein LasR (Pseudomonas aeruginosa (strain ATCC 15692 / PAO1 / 1C / PRS 101 / LMG12228)) (UniProt P25084); assay: Inhibition of LasR-mediated quorum sensing system in Pseudomonas aeruginosa PAO1 at 128 ug/ml relative to control; details: dose 128.0 µg/ml
T1 sequence (whole entry): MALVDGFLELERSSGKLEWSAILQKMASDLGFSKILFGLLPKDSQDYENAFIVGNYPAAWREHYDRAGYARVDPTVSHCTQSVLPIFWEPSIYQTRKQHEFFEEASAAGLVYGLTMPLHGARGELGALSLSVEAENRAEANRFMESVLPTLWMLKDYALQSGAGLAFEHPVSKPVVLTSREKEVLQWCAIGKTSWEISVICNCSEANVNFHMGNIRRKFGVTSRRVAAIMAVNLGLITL

[5] = Inhibition of quorum sensing system in Pseudomonas aeruginosa PAO1 expressing lasB-gfp
[6] = test system: Pseudomonas aeruginosa; assay: Antibacterial activity against Pseudomonas aeruginosa ATCC 15442 assessed as reduction in bacterial cell growth incubated for 24 hrs by two fold serial microdilution method; format: functional
[7] = test system: Pseudomonas aeruginosa; assay: Antibacterial activity against Pseudomonas aeruginosa ATCC 27853 assessed as bacterial growth inhibition by agar diffusion assay; format: functional
[8] = test system: Bacillus subtilis; assay: Antibacterial activity against Bacillus subtilis; format: functional
[9] = test system: Staphylococcus aureus; assay: Antibacterial activity against Methicillin-sensitive Staphylococcus aureus; format: functional
[10] = test system: Escherichia coli; assay: Antibacterial activity against Escherichia coli; format: functional
[11] = test system: Bacillus pumilus; assay: Antibacterial activity against Bacillus pumilus; format: functional
[12] = test system: Pseudomonas aeruginosa; assay: Antibacterial activity against Pseudomonas aeruginosa; format: functional
[13] = test system: Pseudomonas aeruginosa; assay: Antivirulence activity against Pseudomonas aeruginosa PAO1 assessed as reduction in pyocyanin level at 10 uM relative to control; format: functional; parameters: scale not given: the % may be the effect or the level left

Compound: [O-][S+](Cc1ccc(C(F)(F)F)cc1)c1nnc(-c2ccccc2)o1 (stereo not drawn)
Activity [1]: 21.94%

Compound: Cc1ccc(OCCCCCC(=O)NNC(=O)Cn2c(=O)oc3ccccc32)cc1
Activity [2]: 2.53%

Compound: CCCCSSc1nc2ccc(Cl)cc2c(=O)n1-c1ccccc1
Activity [3]: 94%

Compound: [O-][S+](Cc1ccc2c(O)cccc2c1)c1nnn(-c2ccccc2)n1 (stereo not drawn)
Activity [1]: 1.64%

Compound: COc1ccc(C[S+]([O-])c2nnc(-c3ccccc3)o2)cc1 (stereo not drawn)
Activity [1]: 21.94%

Compound: COc1cc(C[S+]([O-])c2nnc(-c3ccccc3)o2)cc(OC)c1 (stereo not drawn)
Activity [1]: 21.94%

inhibition [4]: 50.2%
Compound: O=C(CN1CCOCC1)Oc1ccccc1[N+](=O)[O-]

Compound: C=CCSSc1nc2ccc(Cl)cc2c(=O)n1-c1ccccc1
Activity [3]: 94%

Compound: COc1cccc(C[S+]([O-])c2nnc(-c3ccccc3)o2)c1 (stereo not drawn)
Activity [1]: 21.94%

Compound: [O-][S+](Cc1cccc(Cl)c1)c1nnc(-c2ccccc2)o1 (stereo not drawn)
Activity [1]: 40.6%

pIC50 [5]: 6.22
Compound: O=c1c2cc([N+](=O)[O-])ccc2ncn1CC(O)COc1ccccc1 (stereo not drawn)

MIC [6]: > 2 µM
Compound: Clc1ccc2c(NCCCCCCCCCCCCNCc3ccccc3)ccnc2c1

Compound: CCCCCCCCSSc1nc2ccccc2c(=O)n1-c1ccccc1
Activity [3]: 94%

Compound: [O-][S+](Cc1ccccc1)c1nnn(-c2ccccc2)n1 (stereo not drawn)
Activity [1]: 1.64%

Compound: COc1cccc(C[S+]([O-])c2nnn(-c3ccccc3)n2)c1 (stereo not drawn)
Activity [1]: 1.64%

MIC [7]: > 128 µg/mL
Compound: O=C(CSc1nc2ccccc2s1)c1ccccc1

pIC50 [5]: 6.22
Compound: O=c1c2ccc(Cl)cc2ncn1CC(O)COc1ccccc1 (stereo not drawn)

Compound: CCCCCCCCC(=O)NNC(=O)Cn1c(=O)oc2ccccc21
Activity [2]: 6.34%

Compound: [O-][S+](Cc1ccc(Cl)cc1)c1nc2ccccc2s1 (stereo not drawn)
Activity [1]: 40.6%

Compound: CCCCCCCCSSc1nc2cccc(Cl)c2c(=O)n1-c1ccccc1
Activity [3]: 94%

Compound: O=C(CCCCCOc1cccc(F)c1)NN1C(=O)CN(c2ccccc2O)C1=O
MIC [8]: > 512 µg/mL
MIC [9]: > 512 µg/mL
Activity [2]: 2.76%
MIC [10]: > 512 µg/mL
MIC [11]: > 512 µg/mL
MIC [12]: > 512 µg/mL

pIC50 [5]: 6.22
Compound: O=c1c2cccc(Cl)c2ncn1CC(O)COc1ccccc1 (stereo not drawn)

pIC50 [5]: 6.22
Compound: O=c1c2c(Cl)cccc2ncn1CC(O)COc1ccccc1 (stereo not drawn)

inhibition [4]: 82.3%
Compound: O=C(CN1CCOCC1)Oc1ccc([N+](=O)[O-])cc1

Compound: [O-][S+](Cc1ccc(F)cc1)c1nnc(-c2ccccc2)o1 (stereo not drawn)
Activity [1]: 23.17%

Compound: O=C(CCCCCOc1ccc(Cl)cc1)NN1C(=O)CN(c2ccccc2O)C1=O
MIC [8]: > 512 µg/mL
MIC [9]: > 512 µg/mL
Activity [2]: 2.76%
MIC [10]: > 512 µg/mL
MIC [11]: > 512 µg/mL
MIC [12]: > 512 µg/mL

MIC [6]: > 2 µM
Compound: Clc1ccc2c(NCCCCCCNCc3ccccc3)ccnc2c1

Compound: C=CCSSc1nc2ccccc2c(=O)n1-c1ccccc1
Activity [3]: 94%

Compound: Clc1ccc(SSc2nc3ccccc3s2)cc1
Activity [1]: 40.6%

Compound: CCCCCCSSc1nc2ccccc2c(=O)n1-c1ccccc1
Activity [3]: 94%

inhibition [4]: 61.6%
Compound: O=C(CN1CCOCC1)Oc1cccc([N+](=O)[O-])c1

MIC [6]: > 2 µM
Compound: Clc1ccc2c(NCCCCCCCCNCc3ccccc3)ccnc2c1

Compound: CCCCCCC1=NC(Cn2cnc3cc(Cl)ccc3c2=O)CS1 (stereo not drawn)
Activity [3]: 46%

pIC50 [5]: 6.10
Compound: O=c1c2cc(Br)ccc2ncn1CC(O)COc1ccccc1 (stereo not drawn)

MIC [6]: > 2 µM
Compound: CN(C)CCCCCCCCNc1ccnc2cc(Cl)ccc12

MIC [6]: > 2 µM
Compound: Clc1ccc2c(NCCCCCCCCNCc3ccccc3Cl)ccnc2c1

inhibition [4]: 92.3%
Compound: O=C(OCCN1CCOCC1)c1cccc([N+](=O)[O-])c1

Compound: Cc1ccc(OCCCCCC(=O)NN2C(=O)CN(c3ccccc3O)C2=O)cc1
MIC [8]: > 512 µg/mL
MIC [9]: > 512 µg/mL
Activity [13]: 61%
MIC [10]: > 512 µg/mL
MIC [11]: > 512 µg/mL
MIC [12]: > 512 µg/mL

Compound: O=C(CCCCCOc1ccc(F)cc1)NNC(=O)Cn1c(=O)oc2ccccc21
Activity [2]: 2.53%

pIC50 [5]: 5.49
Compound: N#CCc1ccc(NCC(O)Cn2cnc3ccc(Cl)cc3c2=O)cc1 (stereo not drawn)

Compound: [O-][S+](Cc1cccc(Cl)c1)c1nnn(-c2ccccc2)n1 (stereo not drawn)
Activity [1]: 1.64%

Compound: [O-][S+](Cc1ccc(Cl)cc1)c1nnn(-c2ccccc2)n1 (stereo not drawn)
Activity [1]: 1.64%

MIC [6]: > 2 µM
Compound: CC(C)NCCCCCCCCNc1ccnc2cc(Cl)ccc12

Compound: CCCCCCSSc1nc2ccccc2c(=O)n1C1CC1
Activity [3]: 94%

Compound: CCCCCCSSc1nc2ccc(Cl)cc2c(=O)n1-c1ccccc1
Activity [3]: 94%

pIC50 [5]: 6.22
Compound: O=c1c2cc(Cl)c(Cl)cc2ncn1CC(O)COc1ccccc1 (stereo not drawn)

MIC [6]: > 2 µM
Compound: [N-]=[N+]=Nc1ccc(CNCCCCCCCCNc2ccnc3cc(Cl)ccc23)cc1

pIC50 [5]: 5.49
Compound: N#CCc1ccc(OCC(O)Cn2cnc3ccc(Cl)cc3c2=O)cc1 (stereo not drawn)
